Activity calls are given as the source filed them. No cut-off for these calls is given here.
Assays:
[1] = system: Transcription factor p65 (Homo sapiens), Q04206 [C38S]; assay: Binding affinity to recombinant NF-kappaB transcription factor p65 subunit C38S mutant at 4 equiv mol concentration after 1 hr by MALDI-TOF MS analysis
[2] = Stability of the compound in DMSO for 4 weeks; type: physicochemical; conditions: 672 h
[3] = system: RAW264.7; assay: Inhibition of LPS-induced nitric oxide production in mouse RAW264.7 cells at 100 ug/mL preincubated for 1 hr prior LPS stimulation measured after 24 hrs by Griess reaction relative to (-)-DHMEQ; type: functional, cell-based
[4] = biological target: Transcription factor p65 (Homo sapiens) (UniProt Q04206); assay: Binding affinity to recombinant NF-kappaB transcription factor p65 subunit at 4 equiv mol concentration after 1 hr by MALDI-TOF MS analysis
[5] = system: RAW264.7; assay: Inhibition of NF-kappaB activation in LPS-stimulated mouse RAW264.7 cells assessed as DNA binding using 32P-labeled oligonucleotide with the high affinity site 5'-AGTTGAGGGGACTTTCCCAGGC-3' at 3 ug/mL after 30 mins by EMSA; type: cell-based
[6] = system: RAW264.7; assay: Inhibition of LPS-induced nitric oxide production in mouse RAW264.7 cells preincubated for 1 hr prior LPS stimulation measured after 24 hrs by Griess reaction; type: functional, cell-based
[7] = system: RAW264.7; assay: Cytotoxicity against mouse RAW264.7 cells at 10 ug/mL after 24 hrs by MTT assay; type: cell-based; conditions: raw264.7, 24 h
[8] = Stability of the compound under neutral conditions; type: physicochemical

Transcription factor p65 (Homo sapiens), sequence (Q04206 whole entry): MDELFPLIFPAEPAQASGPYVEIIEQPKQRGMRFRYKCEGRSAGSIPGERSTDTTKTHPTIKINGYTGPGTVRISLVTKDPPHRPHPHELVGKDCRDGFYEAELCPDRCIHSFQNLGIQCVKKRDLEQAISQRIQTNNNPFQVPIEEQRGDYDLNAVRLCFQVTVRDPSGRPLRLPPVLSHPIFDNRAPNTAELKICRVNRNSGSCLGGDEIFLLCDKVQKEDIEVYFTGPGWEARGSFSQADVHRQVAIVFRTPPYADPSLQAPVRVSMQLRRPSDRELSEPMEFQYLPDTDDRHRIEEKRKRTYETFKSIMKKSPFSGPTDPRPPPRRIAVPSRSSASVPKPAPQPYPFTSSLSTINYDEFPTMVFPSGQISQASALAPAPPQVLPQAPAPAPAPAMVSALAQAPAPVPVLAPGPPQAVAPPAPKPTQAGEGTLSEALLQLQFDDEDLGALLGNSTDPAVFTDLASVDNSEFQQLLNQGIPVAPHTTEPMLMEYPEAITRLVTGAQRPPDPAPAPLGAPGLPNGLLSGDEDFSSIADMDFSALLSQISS
Transcription factor p65 (Homo sapiens), Q04206 [C38S], sequence (Q04206 whole entry C38S): as the sequence (Q04206 whole entry) above, with C38S counted along it

## O=C(/C=C/COc1ccccc1C(=O)NC1=CC(=O)[C@H]2O[C@H]2[C@H]1O)NCCOCCOCCNC(=O)CCCC[C@@H]1SC[C@@H]2NC(=O)N[C@@H]21 (mixture of isomers)
[1]
  Activity: inactive
[2]
  Stability: Stable
[3]
  inhibition: inactive
[4]
  Activity: Active

## C=CCOc1ccccc1C(=O)NC1=CC(=O)[C@H]2O[C@H]2[C@H]1O (racemic)
[5]
  inhibition: Active
[6]
  inhibition: Dose-dependent effect
[7]
  Activity: Non-toxic

## O=C(NC1=CC(=O)[C@H]2O[C@H]2[C@H]1O)c1ccccc1O [DEHYDROXYMETHYLEPOXYQUINOMICIN]
[8]
  Stability: Stable

— ChEMBL document CHEMBL1914288, “Design and synthesis of biotinylated DHMEQ for direct identification of its target NF-κB components” (Bioorg Med Chem Lett, 2011)
